Common to all, as to type: cell-based, Saccharomyces
Assay [1] relates to active dry yeast Uvaferm CEG. Put plainly: Duration of fermentation of deficient synthetic must MS70-fa with different added nutrients (Example 3). Conditions: average of duplicates, control without addition 290. As to the method:
12 fermentations were carried out in parallel and in duplicate on a synthetic must MS70-fa such as described in example 1, and corresponding to a medium deficient in assimilable nitrogen (100 mg/l) and containing 200 g/l of fermentable sugars. The active dry yeast used is the commercial yeast Uvaferm CEG™ inoculated at a dosage of 20 g/hl. The yeast extract is the commercial extract Bacto-yeast extract ref. 0127-01-7 (DIFCO, USA). The vitamins and mineral salts are the standard products available from suppliers.
F1 and 2: Controls in which no yeast extract is added either into the rehydration medium of the yeast or into the fermentation medium. The control rehydration medium is the base medium: water with glucose added at 50 g/l.
F3: Fermentation carried out with the yeast CEG™ rehydrated in the presence of yeast extract (used at a dosage permitting a concentration of 30 g/hl in the must) in the rehydration medium.
F4: Fermentation carried out with the yeast CEG™ rehydrated in a control rehydration medium. The same yeast extract as for F3 is added at the start of alcoholic fermentation directly into the synthetic must MS70-fa in a dosage of 30 g/hl.
F6: Fermentation carried out with the yeast CEG™ rehydrated in a control rehydration medium. […]

Assay [2] deals with active dry yeast Uvaferm PM. Put plainly: Industrial fermentation of Airen white wine must in 100 hectolitre vats (Example 7). As to the method:
(§1) The medium M2 containing the composition C2 has been used to rehydrate the ADYs and culture a fermentation must of a white wine in industrial conditions in a cellar in the region of la Mancha in Spain.
(§2) Assimilable Nitrogen in the must: 225 mg/l (non-Deficient must)
(§3) Fermentations have been carried out in 100 hectolitre vats according to different forms, in order to determine the most favourable conditions. Two types of ADY have been used, on their own or in the presence of other substances jointly added to the musts to encourage fermentation. In particular the influence of diammonium phosphate and a fermentation activator, added to the fermentation medium, has been studied.
(§4) The active dry yeasts Uvaferm™ CEG (Lallemand, Canada) and Uvaferm™ PM (Lallemand, Canada) have been rehydrated with the aid of the medium M2 described in example 6. For each of the two yeasts, 4 tests have been carried out, by adding:
(§5) The fermentation activator used is the activator Fermaid™ (Lallemand, Canada).
(§6) The kinetic profile of these eight fermentations was followed by measuring the density of the must and at the level of the production of a secondary component of fermentation, i.e. acetate. Indeed, acetate is responsible for the volatile acidity of wines which should be minimised in order to obtain good gustative qualities.
(§7) The values presented in table 2 correspond to fermentation times in days for each form.
(§8) The values presented in table 3 correspond to the volatile acidity measured at the end of fermentation by the Duclaux-Gayon method, known to the person skilled in the art.

Assay [3] relates to active dry yeast Uvaferm CEG. Described as above. On the procedure: as §1, §2, §3, §4, §5, §6, §7, §8
[4] abbreviates: Airen must, 225 mg/l assimilable nitrogen.
Setting [5] is: at end of fermentation, Duclaux-Gayon method.

For `N.N.O=P(O)(O)O` [Di-ammonia phosphate], the “fermentation time, in rehydration medium” value in assay [1] (product added in rehydration medium) was 280 h. In addition, the “fermentation time, at start of fermentation” value in assay [1] (product added to must at start of fermentation) was 285 h.
As to `N.N.O=P(O)(O)O` [Test no. 1], the fermentation time in assay [2] (setting [4]) is reported as 8 days; in assay [3] (setting [4]) it was 10 days. The Volatile acidity in assay [2] (setting [5]) was 0.33 g/L; in assay [3] (setting [5]), 0.48 g/L.

Source of the values: US20040213889A1, “Method for active dry yeast rehydration and rehydration medium” (priority 2001, published 2004).
